In PMC9977398, “Next-generation membrane-active glycopeptide antibiotics that also inhibit bacterial cell division” (Chemical Science, 2023):
Like-named read-outs stand apart in the source and are kept apart here.

Legend:
[1] = system: VRSA 12 (vancomycin-resistant S. aureus); design: method as in PMID 32195571; conditions: previously reported; cited from earlier work
[2] = system: GFP-FtsZ expressing E. coli; assay: GFP-FtsZ localization and morphology; format: cell-based; conditions: 15 μM
Description: The FtsZ protein assembles into a membrane-associated ring structure at the division septum. It recruits other proteins for the progression and completion of cell division.[34] The effect of VanQAmC10 on the localization of FtsZ and morphology in E. coli producing green fluorescent protein (GFP)-tagged FtsZ was studied through microscopy (Fig. 5B). The cells were treated with IPTG to overexpress gfp-ftsZ and then either treated with compounds or left untreated. Upon treatment with 15 μM of VanQAmC10, the cells appear to be filamentous with variable lengths of up to 4 μm, while cells in the control group were ∼2.5 μm long. Incubation with VanQAmC10 for a longer time (130 minutes) results in bulkier filamentous cells, with severely distorted shapes (Fig. S4 ^†). […] IPTG-treated cells formed minicells of ∼1.5 μm length, which is characteristic of cells overproducing FtsZ.[35] Known inhibitors of FtsZ alter the regular midcell distribution of Z-rings.[36] […]
resuspended in prewarmed BMM media. […] The fluorescence in the GFP and Texas red channels was then observed under the microscope. […]
About 6 μl of sample was immobilized on 1% agarose pad . DIC and fluorescence images were obtained at different time intervals using Nikon Eclipse Ti Microscope equipped with Nikon DS-U3 camera through Plan Apo 100×/1.40 oil objective. […]

[3] = system: VRE 51575 (vancomycin-resistant E. faecalis, VanB phenotype, ATCC 51575); design: method as in PMID 32195571; conditions: previously reported; cited from earlier work
[4] = system: MRSA ATCC 33591; assay: Activity in blood plasma and liver homogenate; format: cell-based, S. aureus; conditions: for MIC: Staphylococcus aureus
Description: Table S1: Activity of VanQAmC10 in mouse plasma and liver homogenate against MRSA […]
MIC of VanQAmC10 post incubation in (μM) […]
Activity in blood plasma and liver homogenate
To examine the susceptibility of VanQAmC10 to serum proteases, the antibacterial activities was tested in the presence of 50% of plasma and liver homogenate. Briefly, 250 μL of VanQAmC10 was added into 250 μL of fresh […] plasma and incubated at 37 °C. An aliquot of the samples 3 h and 24h post-incubation was diluted in 0.9% saline and the antibacterial activity (MIC) were determined against MRSA and VRE by following the same protocol as described above for the antibacterial assay. […]
50 μL of ∼10^6 CFU/mL bacterial inoculum (MRSA ATCC33591) was injected into the thigh. 1 h post-inoculation, animals were treated intraperitoneally twice with 12 h intervals with saline, vancomycin (12 mg kg−1), and VanQAmC10 (12 mg kg−1). 24 h post the first treatment, the animals were euthanized (using ether) and the thighs were collected aseptically. The thigh tissue was weighed and homogenized. The dilutions of the homogenate were plated onto agar plates, which were incubated overnight at about 37 °C. […]
In-vivo activity in murine burn wound infectionmodel 10-12

[5] = system: human erythrocytes; assay: Haemolysis assay; format: cell-based; conditions: human, 1 h, pH 7.4
Description: To select the lead compounds, the toxicity of 1–10 was tested against human erythrocytes as their hemolytic activity (HC50). The HC50 is determined as the concentration at which 50% of the compound treated cells are lysed. […] The HC50 for compounds 6–8 was also greater than 500 μM. […] Based on the in vitro activity and hemolysis studies, VanQbiph (4) from the aryl-substituted compounds and VanQAmC10 (8) from the alkyl-chain substituted compounds were selected for further investigations. […] VanQAmC10 (8) was additionally non-toxic to RAW 264.7 cells up to 40 μM and was therefore taken forward in vivo investigation.[18]
50 μL of serially diluted compound was added into 96 well microtiter plates. Freshly drawn, heparanized human blood was centrifuged down to obtain the erythrocytes and re-suspended to 5 vol % in PBS (pH 7.4). 150 μL of the erythrocyte suspension was added to the serially diluted compounds (from 500 µM to 2 µM). One set without compound and other with 50 μL of 1 vol % solution of Triton X-100 were kept as controls. The plates were incubated at 37 °C for 1 h followed by centrifugation at 3,500 rpm for 5 min. 100 μL of the supernatant from each well were transferred into fresh microtiter plates, and A540 was measured.
% haemolysis = (A - A0)/(Atotal -A0) × 100, where A is the absorbance of the test well, A 0 the absorbance of the negative controls (without compound), and A total the absorbance of 100 % hemolysis wells (with Triton X -100), all at 540 nm. […]

SMILES | Minimum inhibitory concentration, VRSA 12 [1] | localization and distribution of Z-rings [2] | length of filamentous cells ([2]; 40 min, control cells ∼2.5 μm) | Minimum inhibitory concentration, VRE 51575 [3] | change of MIC in plasma and liver homogenate ([4]; MRSA) | MIC ([4]; read-out: MIC post incubation in plasma) | MIC ([4]; MRSA ATCC 33591, read-out: MIC post incubation in liver homogenate) | MIC ([4]; MRSA ATCC 33591, read-out: MIC post incubation in media) | HC50 [5]
CCCCCCCCCCNC(=O)C[N+](C)(C)CCCNC(=O)C1NC(=O)C2NC(=O)C(NC(=O)C3NC(=O)C(CC(N)=O)NC(=O)C(NC(=O)C(CC(C)C)NC)C(O)c4ccc(c(Cl)c4)Oc4cc3cc(c4OC3OC(CO)C(O)C(O)C3OC3CC(C)(N)C(O)C(C)O3)Oc3ccc(cc3Cl)C2O)c2ccc(O)c(c2)-c2c(O)cc(O)cc21 (stereo not drawn) [VanQAmC10 (8)] | 1.6 µM | remain unaltered | up to 4 μm | 4 µM | remained unchanged | 0.4 µM | 0.4 µM | 0.4 µM | 
CNC(CC(C)C)C(=O)NC1C(=O)NC(CC(N)=O)C(=O)NC2C(=O)NC3C(=O)NC(C(=O)NC(C(=O)NCCC[N+](C)(C)Cc4ccc(-c5ccccc5)cc4)c4cc(O)cc(O)c4-c4cc3ccc4O)C(O)c3ccc(c(Cl)c3)Oc3cc2cc(c3OC2OC(CO)C(O)C(O)C2OC2CC(C)(N)C(O)C(C)O2)Oc2ccc(cc2Cl)C1O (stereo not drawn) [VanQbiph (4)] |  |  |  |  |  |  |  |  | >500 µM
